According to US6420352B1, “Hair loss prevention” (priority 2000, dated 2002):
Read-outs that look alike come from different tables or passages of the source.

Legend:
hair loss = assay: Topical use for hair loss prevention, effectiveness in patients; format: in vivo, human; settings: same amount of minoxidil
Description: […]. […] […]. After about thirty months of use, about half of the new hair growth falls out. Thus, while the user has somewhat more hair than originally, the user has less hair than […].
Minoxidil without a penetration enhancer (as available in ROGAINE™ topical minoxidil U.S.P.) produces a different kind of hair than does minoxidil used with a penetration enhancer.
Further, it is known in the art that minoxidil users experience a sudden drop in hair thickness after about thirty months of usage. I thus have sought the time at which my compounds have a sudden drop in effectiveness. […] That this function is abnormal is confirmed by its drop in effectiveness after thirty months; such a drop in efficacy indicates a “tolerance” acquired against the intervention, rather than the maintenance of a permanent, healthy state.
Using the specific formulations disclosed here, I have observed decreases in hair loss, and a consequent statistically significant increase in the amount of healthy mature hair, after 4.0-4.5 months on the frontal scalp. On the crown and back of the head, by contrast, I have observed statistically significant results after 4.5-5.0 months. The frontal scalp may react faster because it enjoys greater vascularization and blood flow than the other parts of the scalp.
I have found several surprising things about testosterone blockers. […]

[1] = cited from earlier work
age related hair loss = settings: stump-tail macaque monkeys; cited from earlier work
scalp hair follicles = settings: in vivo; cited from earlier work

**Q.** For Nc1cc(N2CCCCC2)nc(N)[n+]1[O-] [minoxidil, 6-(1-piperidinyl)-2,4-pyrimidinediamaine 3-oxide], which “share of patients on whom the preparation is effective” value (hair loss) is on record?
**A.** The value was 8%.

**Q.** For CC(=O)[C@H]1CC[C@H]2[C@@H]3CCC4=CC(=O)CC[C@]4(C)[C@H]3CC[C@]12C [Progesterone, pregn-4-ene-3, 20-dione], which “solubility, in words” value ([1]; in alcohol, acetone, dioxane, and concentrated sulfuric acid) is on record?
**A.** The value was “soluble”.

**Q.** And the “solubility, in words” value ([1]; in vegetable oils)?
**A.** Its value is “sparingly soluble”.

**Q.** And the “solubility, in words” value ([1]; in water)?
**A.** Its value is “insoluble”.

**Q.** For CCC(CCCCC1CCC2CC(=O)CC12)OC (stereo not shown) [Cioteronel, hexahydro-4-(5-methoxyheptyl)-2(1H)-pentalenone], which “solubility, in words” value ([1]; in lipid and relatively non-polar solvents) is on record?
**A.** Its value is “soluble”.

**Q.** For CN(C)C(=O)C1CCC2C3CCC4N(C)C(=O)CCC4(C)C3CCC12C (stereo not drawn) [17b-N,N,- dimethylcarbamoyl-4-methyl-4-aza-5α-androstan-3-one], which “age related hair loss versus untreated monkeys” value (age related hair loss) is on record?
**A.** The value was “significantly less age related hair loss”.

**Q.** For CC(C)(C)NC(=O)[C@H]1CC[C@H]2[C@@H]3CC[C@H]4NC(=O)C=C[C@]4(C)[C@H]3CC[C@]12C [finasteride], which “effect on scalp hair follicles / balding process” value (scalp hair follicles) is on record?
**A.** The value was “miniaturizes scalp hair follicles, reversing the balding process”.
